As a reminder, the Ki is a dissociation constant, usually derived from enzyme kinetics or from competition with a known ligand. For orientation: inhibition means the percentage by which the read-out fell short of the control. Low readings indicate a weak effect, high ones a strong effect.

The structures appear in SMILES notation.

One data set addresses D(3) dopamine receptor (Homo sapiens, UniProt P35462). In words: Displacement of [3H]-spiperone from human dopamine D3 receptor expressed in CHO cell membranes.
For a further data set, the target named is D(2) dopamine receptor (Homo sapiens, UniProt P14416). In words: Displacement of [3H]-spiperone from human dopamine D2S receptor expressed in HEK293 cell membranes. (In general: Loss of bound radioactivity is the signal in a displacement assay; it reports binding, not function.)
Sequence of D(2) dopamine receptor (P14416 whole entry): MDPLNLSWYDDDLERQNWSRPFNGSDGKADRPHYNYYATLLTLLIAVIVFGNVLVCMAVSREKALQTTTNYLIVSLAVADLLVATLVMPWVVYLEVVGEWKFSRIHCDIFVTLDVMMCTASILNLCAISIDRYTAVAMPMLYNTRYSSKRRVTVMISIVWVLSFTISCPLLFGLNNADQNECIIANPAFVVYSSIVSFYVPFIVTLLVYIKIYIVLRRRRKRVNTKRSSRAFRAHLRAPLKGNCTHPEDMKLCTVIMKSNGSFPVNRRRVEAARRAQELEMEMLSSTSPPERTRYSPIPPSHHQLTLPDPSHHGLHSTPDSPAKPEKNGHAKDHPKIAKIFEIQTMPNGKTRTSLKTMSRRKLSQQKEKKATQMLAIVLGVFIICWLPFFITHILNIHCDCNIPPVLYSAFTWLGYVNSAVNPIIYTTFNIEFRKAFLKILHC
The species entered for data set [1] is Homo sapiens. In words: Selectivity ratio of Ki for human dopamine D2S receptor to Ki for human dopamine D3 receptor.
The species entered for data set [2] is Homo sapiens. In words: Selectivity ratio of Ki for human ADRA1A receptor to Ki for human dopamine D3 receptor.
The target in data set [3] is T1, Alpha-1A adrenergic receptor (Homo sapiens, UniProt P35348).
T1 sequence (P35348 whole entry): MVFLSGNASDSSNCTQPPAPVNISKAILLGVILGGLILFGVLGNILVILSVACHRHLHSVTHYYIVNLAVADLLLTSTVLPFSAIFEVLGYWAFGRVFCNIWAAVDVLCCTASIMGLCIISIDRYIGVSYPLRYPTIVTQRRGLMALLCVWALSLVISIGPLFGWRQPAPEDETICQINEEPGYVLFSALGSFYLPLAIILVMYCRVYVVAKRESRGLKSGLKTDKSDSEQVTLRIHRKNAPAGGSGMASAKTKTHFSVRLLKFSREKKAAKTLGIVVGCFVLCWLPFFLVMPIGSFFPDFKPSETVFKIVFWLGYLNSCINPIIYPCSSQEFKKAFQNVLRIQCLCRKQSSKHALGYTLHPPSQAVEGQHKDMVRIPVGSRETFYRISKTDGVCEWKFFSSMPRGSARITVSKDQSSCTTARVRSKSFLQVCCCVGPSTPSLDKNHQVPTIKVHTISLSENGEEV
In words: Displacement of [3H]-prazosin from human ADRA1A receptor.

A further data set has as its target hERG (KCNH2) (Homo sapiens, UniProt Q12809). In words: Inhibition of dofetilide binding to human ERG at 1 uM. The following applies: probe dofetilide.

Sequence of D(3) dopamine receptor (P35462 whole entry): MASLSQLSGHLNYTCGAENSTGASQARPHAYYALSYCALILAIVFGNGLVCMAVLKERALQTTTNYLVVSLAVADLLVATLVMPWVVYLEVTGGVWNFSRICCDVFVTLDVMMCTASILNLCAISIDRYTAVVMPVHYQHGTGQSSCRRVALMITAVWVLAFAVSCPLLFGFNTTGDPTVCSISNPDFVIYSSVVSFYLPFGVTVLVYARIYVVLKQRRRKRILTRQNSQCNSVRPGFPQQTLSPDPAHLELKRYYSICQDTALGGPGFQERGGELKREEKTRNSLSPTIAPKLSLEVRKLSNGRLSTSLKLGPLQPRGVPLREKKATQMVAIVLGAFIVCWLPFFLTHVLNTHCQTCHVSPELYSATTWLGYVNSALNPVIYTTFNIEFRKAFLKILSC
Sequence of hERG (KCNH2) (Q12809 whole entry): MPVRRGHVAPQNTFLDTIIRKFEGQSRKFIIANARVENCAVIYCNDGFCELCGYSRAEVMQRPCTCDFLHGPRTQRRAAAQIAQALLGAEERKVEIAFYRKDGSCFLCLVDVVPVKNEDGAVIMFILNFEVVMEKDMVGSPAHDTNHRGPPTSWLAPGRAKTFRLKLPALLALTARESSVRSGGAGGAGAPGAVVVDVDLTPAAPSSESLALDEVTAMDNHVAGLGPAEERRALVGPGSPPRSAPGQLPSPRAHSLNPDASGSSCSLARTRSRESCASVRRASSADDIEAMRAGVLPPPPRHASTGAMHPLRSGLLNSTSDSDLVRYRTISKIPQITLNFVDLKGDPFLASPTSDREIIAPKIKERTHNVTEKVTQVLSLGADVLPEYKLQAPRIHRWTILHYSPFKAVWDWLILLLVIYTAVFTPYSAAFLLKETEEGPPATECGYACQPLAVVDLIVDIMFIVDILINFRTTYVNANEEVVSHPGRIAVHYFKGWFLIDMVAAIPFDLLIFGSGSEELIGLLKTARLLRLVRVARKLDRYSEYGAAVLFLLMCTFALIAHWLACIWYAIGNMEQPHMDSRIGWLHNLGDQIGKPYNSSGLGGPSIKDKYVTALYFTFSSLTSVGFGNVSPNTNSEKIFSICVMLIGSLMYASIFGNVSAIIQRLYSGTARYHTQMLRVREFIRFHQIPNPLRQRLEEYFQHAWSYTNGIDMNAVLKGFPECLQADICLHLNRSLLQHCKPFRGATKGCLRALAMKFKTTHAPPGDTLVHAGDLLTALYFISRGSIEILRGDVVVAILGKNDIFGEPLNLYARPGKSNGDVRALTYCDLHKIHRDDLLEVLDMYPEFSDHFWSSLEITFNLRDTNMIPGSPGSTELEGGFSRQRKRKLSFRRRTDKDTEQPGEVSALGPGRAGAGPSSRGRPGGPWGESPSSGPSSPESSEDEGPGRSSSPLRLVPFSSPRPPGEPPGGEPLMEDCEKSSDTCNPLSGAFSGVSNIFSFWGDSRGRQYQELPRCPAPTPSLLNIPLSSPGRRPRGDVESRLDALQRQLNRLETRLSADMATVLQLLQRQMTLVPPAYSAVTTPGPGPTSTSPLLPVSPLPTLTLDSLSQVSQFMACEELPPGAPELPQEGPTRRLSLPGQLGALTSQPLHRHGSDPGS

As for `O=C(NCCCCN1CCN(c2ccccc2Cl)CC1)c1ccc2ccccc2c1`, the Ki was 0.7 nM at D(3) dopamine receptor, 238 nM at D(2) dopamine receptor (read-out: Ki) and 29.9 nM in data set [3]. Further, the Ratio Ki in the data set filed under Homo sapiens [1] is 340; in the data set filed under Homo sapiens [2], 43.
In the case of `CCOC(=O)Nc1cccc(N2CCN(CCCCNC(=O)c3ccc4ccccc4c3)CC2)c1`, the Ki at D(3) dopamine receptor stood at 3.9 nM; at D(2) dopamine receptor (read-out: Ki), 911 nM; in data set [3], 1030 nM. In addition, the Ratio Ki is 234 in the data set filed under Homo sapiens [1] and 264 in the data set filed under Homo sapiens [2].
On to `O=C(NCCCCN1CCN(c2cccc(C(F)(F)F)c2)CC1)c1ccc2ccccc2c1`, for which the Ki at D(3) dopamine receptor was found to be 1.1 nM; on D(2) dopamine receptor (read-out: Ki), 1550 nM; in data set [3], 283 nM. Also, on hERG (KCNH2), at 1 µM the inhibition was 51%. Also, the Ratio Ki in the data set filed under Homo sapiens [1] amounted to 1400; in the data set listed under Homo sapiens [2], 260.
Turning to `O=C(NCCCCN1CCN(c2ccccc2F)CC1)c1ccc2ccccc2c1`, the Ki at D(3) dopamine receptor is 1.23 nM; at D(2) dopamine receptor (read-out: Ki), 310 nM; in data set [3] it was 38.5 nM. Besides, the Ratio Ki in the data set listed under Homo sapiens [1] amounted to 250; in the data set listed under Homo sapiens [2], 31.
With `COc1ccccc1N1CCN(CCCCCOc2ccc3ccccc3c2)CC1`, the results for the Ki (at D(3) dopamine receptor; at D(2) dopamine receptor (read-out: Ki); in data set [3]) were 87 nM, 34 nM and 10.3 nM, respectively. Further, the Ratio Ki in the data set filed under Homo sapiens [1] worked out at 0.4; in the data set listed under Homo sapiens [2] it was 0.1.
Regarding `O=C(NCCCCN1CCN(c2cccc(Cl)c2Cl)CC1)c1ccc2ccccc2c1`, the Ki came out at 1.08 nM on D(3) dopamine receptor and 104 nM in data set [3].
On to `COc1ccccc1N1CCN(CCCCNC(=O)N2CCOCC2)CC1`, for which the Ki on D(3) dopamine receptor turned out to be 1.8 nM; at D(2) dopamine receptor (read-out: Ki), 482 nM; in data set [3], 81 nM. Besides, the Ratio Ki in the data set filed under Homo sapiens [1] was found to be 270; in the data set listed under Homo sapiens [2], 45.
As for `O=C(NCCCCN1CCN(c2cccc3[nH]ccc23)CC1)c1ccc2ccccc2c1`, the Ki on D(3) dopamine receptor came to 1.3 nM; on D(2) dopamine receptor (read-out: Ki), 95 nM; in data set [3], 19 nM. Besides, the Ratio Ki in the data set listed under Homo sapiens [1] amounted to 73; in the data set filed under Homo sapiens [2], 15.
For the molecule `O=C(NCCCCN1CCN(c2cccc(O)c2)CC1)c1ccc2ccccc2c1`, the Ki at D(3) dopamine receptor amounted to 0.2 nM; on D(2) dopamine receptor (read-out: Ki) it was 373 nM; in data set [3], 1520 nM. On hERG (KCNH2), this molecule yielded an inhibition at 1 µM of 30%. The figures for the Ratio Ki in the data set filed under Homo sapiens [1] and in the data set filed under Homo sapiens [2] were 1900 and 7600, respectively.
For `O=C(NCCCCN1CCN(c2cccc3[nH]c(=O)[nH]c23)CC1)c1ccc2ccccc2c1`, the Ki at D(3) dopamine receptor worked out at 3.5 nM; at D(2) dopamine receptor (read-out: Ki) it was 131 nM; in data set [3], 158 nM. For the same molecule, the Ratio Ki is 37 in the data set filed under Homo sapiens [1] and 45 in the data set filed under Homo sapiens [2].
For the molecule `O=C(NCCCCN1CCN(c2cccc(Cl)c2)CC1)c1ccc2ccccc2c1`, the values for the inhibitory constant (Ki) (on D(3) dopamine receptor; at D(2) dopamine receptor (read-out: Ki); in data set [3]) were 4.7 nM, 3320 nM and 50.2 nM, respectively. Also, the values for the Ratio Ki in the data set listed under Homo sapiens [1] and in the data set listed under Homo sapiens [2] were 700 and 11, respectively.
Turning to `O=C1Cc2c(cccc2N2CCN(CCCCNC(=O)c3ccc4ccccc4c3)CC2)N1`, the Ki at D(3) dopamine receptor stood at 0.5 nM; on D(2) dopamine receptor (read-out: Ki) it was 52 nM; in data set [3] it was 211 nM. Further, the Ratio Ki in the data set filed under Homo sapiens [1] came out at 100; in the data set listed under Homo sapiens [2] it was 420.
In the case of `COc1ccccc1N1CCN(CCCCNC(=O)Nc2cccc(Cl)c2)CC1`, the Ki on D(3) dopamine receptor came to 1.3 nM; at D(2) dopamine receptor (read-out: Ki), 13 nM; in data set [3] it was 5 nM. The values for the Ratio Ki in the data set filed under Homo sapiens [1] and in the data set filed under Homo sapiens [2] were 10 and 4, respectively.
The matching figures for `COc1ccccc1N1CCN(CCCCNC(=O)CC2CCCCC2)CC1`: 2 nM, 322 nM, 65.5 nM, 161 and 33.
The matching figures for `CS(=O)(=O)Nc1cccc(N2CCN(CCCCNC(=O)c3ccc4ccccc4c3)CC2)c1`: 1.6 nM, 55 nM, 160 nM, 34 and 100.
`O=C(NCCCCN1CCN(c2ccc(Cl)cc2)CC1)c1ccc2ccccc2c1`: the Ki at D(3) dopamine receptor is 10.4 nM; on D(2) dopamine receptor (read-out: Ki) it was 12100 nM; in data set [3], 166 nM. In addition, the Ratio Ki in the data set listed under Homo sapiens [1] amounted to 1170; in the data set listed under Homo sapiens [2], 16.
On to `O=C(NCCCCN1CCN(c2ccccc2O)CC1)c1ccc2ccccc2c1`, for which the Ki on D(3) dopamine receptor worked out at 12.7 nM; on D(2) dopamine receptor (read-out: Ki), 5030 nM; in data set [3], 46.7 nM. For the same molecule, the Ratio Ki amounted to 400 in the data set filed under Homo sapiens [1] and 3.7 in the data set filed under Homo sapiens [2].
On to `COc1ccccc1N1CCN(CCCCNC(=O)N(C)c2ccccc2)CC1`, for which the inhibition constant Ki at D(3) dopamine receptor was 12 nM; on D(2) dopamine receptor (read-out: Ki), 1550 nM; in data set [3], 116 nM. Further, the values for the Ratio Ki in the data set filed under Homo sapiens [1] and in the data set filed under Homo sapiens [2] were 130 and 10, respectively.
In the case of `Cc1ccccc1N1CCN(CCCCNC(=O)c2ccc3ccccc3c2)CC1`, the Ki on D(3) dopamine receptor is 0.73 nM; on D(2) dopamine receptor (read-out: Ki), 404 nM; in data set [3] it was 29.9 nM. Besides, the Ratio Ki in the data set listed under Homo sapiens [1] was 550; in the data set filed under Homo sapiens [2], 41.
For the molecule `COc1ccccc1N1CCN(CCCCNC(=O)CC(C)C)CC1`, the results for the Ki (at D(3) dopamine receptor; at D(2) dopamine receptor (hek293); in data set [3]) were 123 nM, “Not Active” and 418 nM, respectively. Besides, the Ratio Ki in the data set listed under Homo sapiens [2] stood at 3.
For `Cc1cccc(N2CCN(CCCCNC(=O)c3ccc4ccccc4c3)CC2)c1C`, the Ki at D(3) dopamine receptor came to 1.33 nM; on D(2) dopamine receptor (read-out: Ki), 302 nM; in data set [3], 230 nM. For the same molecule, the Ratio Ki in the data set filed under Homo sapiens [1] worked out at 230; in the data set listed under Homo sapiens [2], 170.
Take `COc1ccccc1N1CCN(CCCCNC(=O)C2CCCCC2)CC1`: the Ki was 0.9 nM at D(3) dopamine receptor, 168 nM on D(2) dopamine receptor (read-out: Ki) and 963 nM in data set [3]. This molecule also had an inhibition at 1 µM on hERG (KCNH2) of 82%. The Ratio Ki in the data set listed under Homo sapiens [1] is 190; in the data set listed under Homo sapiens [2], 1070.
